Reference: article PMC12621184, “Synthesis and Pharmacological Characterization of Nociceptin/Orphanin FQ Dimeric Ligands” (Journal of Medicinal Chemistry, 2025)
Bridge positions count the residues as written; N and C are the ends. Peptide text beside a SMILES is read from it. I, II: the chains in the order shown.

Key:
human NOP [1] = biological target: T1, human NOP (Homo sapiens, UniProt P41146); assay: Calcium mobilization assay, CHO cells with NOP receptor and chimeric G protein; type: cell-based; design: expressed in transfected cells; details: for EC50: CHO cells coexpressing human NOP and Gαqi5, Fluo-4, 37 °C, mean (CL95%), N = 5 experiments in duplicate, read-out: Ca^2+ mobilization pEC50 (CL95%) (converted); for Ca^2+ mobilization E max ± sem: CHO cells coexpressing human NOP and Gαqi5, maximum change in percentage over baseline fluorescence, mean ± sem, N = 5 in duplicate
Description: Chinese hamster ovary (CHO) cells stably coexpressing the human NOP, μ, or κ opioid receptors and the Gαqi5 protein or the human δ and the GαqG66Di5 protein were used in this assay. , Cells were cultured in DMEM/F-12 (1:1) medium supplemented with 10% FBS, 2 mM L-glutamine, […], 100 IU/mL penicillin, and 100 IU/mL streptomycin. Cells were maintained at 37 °C in a humidified atmosphere with 5% CO2 and were seeded at 50 000 cells/well into 96-well black, clear-bottom plates 24 h before test. Loading for 45 min with a solution consisting of HBSS supplemented with 2.5 mM probenecid, 3 μM Fluo-4 AM, and 0.01% pluronic acid ensures the calcium-sensitive dye (Fluo-4) reaches the needed concentration inside the cell, while the exchange of the solution with 100 μL/well of buffer consisting of HBSS with 20 mM HEPES, 2.5 mM probenecid, and 500 μM Brilliant Black allows for fluorescence background to decrease. Serial dilutions of ligands were prepared in HBSS buffer with 20 mM HEPES and 0.02% bovine serum albumin (BSA) to minimize the ligands’ stickiness to plasticware. The automated microplate reader FlexStation II (Molecular Devices, CA, US) was employed at 37 °C to detect changes in fluorescence intensity. The effects of all compounds were expressed as the maximum change in percentage over the baseline fluorescence measured in samples treated with vehicles.
(§1) Concentration-response curves to agonists were analyzed by a four-parameter logistic nonlinear regression model: Effect = baseline + (E max – baseline)/(1 + 10^((logEC50–log[ligand])slope)). […] Experimental data were expressed as mean ± sem of at least 5 experiments. Potency values were expressed as the mean and CL95%. In vitro E max values were analyzed by one-way ANOVA, while in vivo latency data were evaluated by one-way ANOVA followed by Dunnett’s post hoc test. The proportion of mice losing the righting reflex was compared by Fisher’s exact test performed on raw data. GraphPad Prism 10.0 software was used for all of the analyses. The terminology employed is consistent with the International Union of Basic and Clinical Pharmacology (IUPHAR) recommendations. ,

human NOP [2] = biological target: T1, human NOP; assay: NOP receptor–G protein interaction BRET assay; type: biochemical; design: expressed in transfected cells; host or cells: membranes of HEK293 cells stably coexpressing NOP-RLuc and Gβ1-RGFP; details: N = 5 experiments in duplicate; for EC50: membranes from HEK293 cells coexpressing NOP-RLuc and Gβ1-RGFP, room temperature, mean (CL95%), read-out: NOP–G protein interaction pEC50 (CL95%) (converted)
Description: A BRET interaction assay was used, as previously detailed in ref , to study the propensity of ligands to evoke interaction between the NOP receptor and to G protein. Membranes taken from HEK293 cells stably coexpressing the fusoproteins NOP-RLuc and Gβ1-RGFP were used. Such cells were grown in DMEM medium supplemented with 10% FBS, 2 mM L-glutamine, […] G418, […] hygromycin B, 100 IU/mL penicillin, and 100 IU/mL streptomycin in a humidified atmosphere with 5% CO2 at 37 °C. Cell membranes were thawed and resuspended in PBS supplemented with 0.01% BSA before the assay, and an amount of 3 μg of total protein was dispensed in each of the 96 wells together with 2 μM Prolume Purple Coelenterazine. All experiments were carried out at room temperature. Ligands were added, and averaged BRET ratios from 10 min measurements were computed. BRET ratios were computed as counts per second (CPS) obtained on a Victor Nivo (PerkinElmer) with 405 (10) nm and 510 (30) nm bandpass filters. Vehicles’ BRET ratios were derived from light passed through 510 divided by that passed through 405 filters. Vehicles BRET values were subtracted from all computations, and data sets were normalized as a fraction of N/OFQ maximal effects.
as §1

T1 sequence (P41146 whole entry): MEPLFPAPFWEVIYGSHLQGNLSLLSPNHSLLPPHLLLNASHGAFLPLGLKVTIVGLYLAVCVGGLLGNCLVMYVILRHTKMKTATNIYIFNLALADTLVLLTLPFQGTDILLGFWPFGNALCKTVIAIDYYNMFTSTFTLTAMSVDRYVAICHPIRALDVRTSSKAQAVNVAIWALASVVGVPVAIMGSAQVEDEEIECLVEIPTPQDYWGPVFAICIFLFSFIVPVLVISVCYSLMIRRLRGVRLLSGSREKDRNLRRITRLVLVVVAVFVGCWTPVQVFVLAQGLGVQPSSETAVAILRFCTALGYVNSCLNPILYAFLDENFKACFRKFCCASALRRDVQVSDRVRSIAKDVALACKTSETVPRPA

Structure (SMILES) | EC50 (human NOP [1]) [nM] | Ca^2+ mobilization E max ± sem (human NOP [1]) [% over the baseline] | EC50 (human NOP [2]) [nM] | NOP–G protein interaction E max ± sem (human NOP [2]; effects normalized to N/OFQ-NH2 (E max = 1), mean ± sem)
CC(C)C[C@H](NC(=O)[C@H](CCCCN)NC(=O)[C@H](CCCNC(=N)N)NC(=O)[C@H](C)NC(=O)[C@H](CSSC[C@H](NC(=O)[C@H](CCCCN)NC(=O)[C@H](CCCNC(=N)N)NC(=O)[C@H](C)NC(=O)CNC(=O)[C@@H](NC(=O)[C@H](Cc1ccccc1)NC(=O)CNC(=O)CNC(=O)[C@@H](N)Cc1ccccc1)[C@@H](C)O)C(=O)N[C@@H](C)C(=O)N[C@@H](CCCNC(=N)N)C(=O)N[C@@H](CCCCN)C(=O)N[C@@H](CC(C)C)C(=O)N[C@@H](C)C(=O)N[C@@H](CC(N)=O)C(=O)N[C@@H](CCC(N)=O)C(N)=O)NC(=O)[C@H](CCCCN)NC(=O)[C@H](CCCNC(=N)N)NC(=O)[C@H](C)NC(=O)CNC(=O)[C@@H](NC(=O)[C@H](Cc1ccccc1)NC(=O)CNC(=O)CNC(=O)[C@@H](N)Cc1ccccc1)[C@@H](C)O)C(=O)N[C@@H](C)C(=O)N[C@@H](CC(N)=O)C(=O)N[C@@H](CCC(N)=O)C(N)=O [1d, [[Cys^10]N/OFQ-NH2]2] (I: H-FGGFTGARKCARKLANQ-NH2 / II: H-FGGFTGARKCARKLANQ-NH2; disulfide I:10-II:10) | 1.91 | 305 ± 42 | 0.141 | –
CC(C)C[C@H](NC(=O)[C@H](CCCCN)NC(=O)[C@H](CSSC[C@H](NC(=O)[C@H](C)NC(=O)[C@H](CO)NC(=O)[C@H](CCCCN)NC(=O)[C@H](CCCNC(=N)N)NC(=O)[C@H](C)NC(=O)CNC(=O)[C@@H](NC(=O)[C@H](Cc1ccccc1)NC(=O)CNC(=O)CNC(=O)[C@@H](N)Cc1ccccc1)[C@@H](C)O)C(=O)N[C@@H](CCCCN)C(=O)N[C@@H](CC(C)C)C(=O)N[C@@H](C)C(=O)N[C@@H](CC(N)=O)C(=O)N[C@@H](CCC(N)=O)C(N)=O)NC(=O)[C@H](C)NC(=O)[C@H](CO)NC(=O)[C@H](CCCCN)NC(=O)[C@H](CCCNC(=N)N)NC(=O)[C@H](C)NC(=O)CNC(=O)[C@@H](NC(=O)[C@H](Cc1ccccc1)NC(=O)CNC(=O)CNC(=O)[C@@H](N)Cc1ccccc1)[C@@H](C)O)C(=O)N[C@@H](C)C(=O)N[C@@H](CC(N)=O)C(=O)N[C@@H](CCC(N)=O)C(N)=O [1f, [[Cys^12]N/OFQ-NH2]2] (I: H-FGGFTGARKSACKLANQ-NH2 / II: H-FGGFTGARKSACKLANQ-NH2; disulfide I:12-II:12) | 3.02 | 346 ± 19 | 1.26 | 1.07 ± 0.12
CC(C)C[C@H](NC(=O)[C@H](CSSC[C@H](NC(=O)[C@H](CCCNC(=N)N)NC(=O)[C@H](C)NC(=O)[C@H](CO)NC(=O)[C@H](CCCCN)NC(=O)[C@H](CCCNC(=N)N)NC(=O)[C@H](C)NC(=O)CNC(=O)[C@@H](NC(=O)[C@H](Cc1ccccc1)NC(=O)CNC(=O)CNC(=O)[C@@H](N)Cc1ccccc1)[C@@H](C)O)C(=O)N[C@@H](CC(C)C)C(=O)N[C@@H](C)C(=O)N[C@@H](CC(N)=O)C(=O)N[C@@H](CCC(N)=O)C(N)=O)NC(=O)[C@H](CCCNC(=N)N)NC(=O)[C@H](C)NC(=O)[C@H](CO)NC(=O)[C@H](CCCCN)NC(=O)[C@H](CCCNC(=N)N)NC(=O)[C@H](C)NC(=O)CNC(=O)[C@@H](NC(=O)[C@H](Cc1ccccc1)NC(=O)CNC(=O)CNC(=O)[C@@H](N)Cc1ccccc1)[C@@H](C)O)C(=O)N[C@@H](C)C(=O)N[C@@H](CC(N)=O)C(=O)N[C@@H](CCC(N)=O)C(N)=O [1g, [[Cys^13]N/OFQ-NH2]2] (I: H-FGGFTGARKSARCLANQ-NH2 / II: H-FGGFTGARKSARCLANQ-NH2; disulfide I:13-II:13) | 1.62 | 247 ± 39 | 0.302 | –
